Assay results reported in US20210255167A1, “COMPOSITIONS AND METHODS FOR ASSESSING TOXICITY USING DYNAMIC BH3 PROFILING” (Dana-Farber Cancer Institute, Inc., priority 2015, published 2021).

Test system: adult mouse hepatocytes
From the text: In some aspects, methods provided herein relate to determining the toxicity of an agent in a sample of cells. In some embodiments, the toxicity of the agent can be determined by determining a value for delta percent priming. As used herein, “delta percent priming” refers to the extent to which an agent shifts a cell closer to the threshold of apoptosis. In some embodiments, normalized values of MOMP (e.g., percent BH3 domain peptide-induced MOMP, or “% MOMP”) are used to determine a value for delta percent priming. In such embodiments, the value for delta percent priming can be calculated using the equation:
Delta Percent Priming=(% MOMPTEST)−(% MOMPCONTROL),
where “% MOMPTEST” represents the value for percent BH3 domain peptide-induced MOMP determined in a test aliquot (cells contacted with the agent); and “% MOMPCONTROL” represents the value for percent BH3 domain peptide-induced MOMP determined in a control aliquot (cells not contacted with the agent).
Next, various drug compounds were tested to assess the extent of drug-induced increased cell death sensitivity in adult mouse hepatocytes. Freshly isolated adult mouse hepatocytes were treated with different drugs for 20 hours, and the loss of cytochrome c induced by a single concentration of the synthetic Bim BH3 peptide was subsequently assessed by immunofluorescence (FIGS. 5A-D). Increase in cell death sensitivity is indicated by loss of cytochrome c, which is quantified as an increase in apoptotic sensitivity (delta priming, FIG. 5E).

Row | SMILES | apoptotic sensitivity (delta priming)
1 | CC1(C)CCC(c2ccc(Cl)cc2)=C(CN2CCN(c3ccc(C(=O)NS(=O)(=O)c4ccc(N[C@H](CCN5CCOCC5)CSc5ccccc5)c(S(=O)(=O)C(F)(F)F)c4)cc3)CC2)C1 [Navitoclax] | increase apoptotic sensitivity
2 | COc1cccc2c1C(=O)c1c(O)c3c(c(O)c1C2=O)C[C@@](O)(C(=O)CO)C[C@@H]3O[C@H]1C[C@H](N)[C@H](O)[C@H](C)O1 [doxorubicin] | increase apoptotic sensitivity
3 | C=CCNC1=C2C[C@@H](C)C[C@H](OC)[C@H](O)[C@@H](C)/C=C(\C)[C@H](OC(N)=O)[C@@H](OC)/C=C\C=C(/C)C(=O)NC(=CC1=O)C2=O [tanespimycin] | increase apoptotic sensitivity
